From patent US20260216158A1, “OCULAR IMPLANT CONTAINING A TYROSINE KINASE INHIBITOR” (OCULAR THERAPEUTIX, INC., priority 2023, published 2026)
Converted amounts (≈) assume the structure as drawn. “And” between values parts separate entries of the source, which are not always exact repeats. Equal entries are not always repeated. Values belong to the molecule of their own block, whether it stands above or below them.

Tests used:
[1] = Stability of axitinib polymorph IV in an implant throughout 6 months (Example 11); type: physicochemical
[2] = Solubility of axitinib free base polymorphs (SAB-I, Polymorph IV) in PBS (Example 6.1); settings: for Equilibrium solubility in PBS, Average (Days 5-8) / Solubility in PBS, Day 1 / Solubility in PBS, Day2 / Solubility in PBS, Day 5 / Solubility in PBS, Day 6 / Solubility in PBS, Day 8: 37° C., pH 7.2 to 7.4; for Equilibrium solubility in PBS, Average (Days 5-8): average of days 5, 6 and 8, UPLC; for Solubility in PBS, Day2: day 2
[3] = axitinib: Rugo et al. 2005; ranibizumab, aflibercept: in the human eye; cited from earlier work
[4] = system: VEGF-induced retinal vascular leakage; assay: VEGF challenge study, leakage score over time (Example 14); type: in vivo, Dutch Belted rabbit; settings: fluorescein angiography, 0 no leakage, 4 no inhibition of leakage
retinal vessel leakage = assay: In vivo VEGF challenge study, leakage by fluorescein angiography; settings: rabbit VEGF challenge, scale 0 to 4
Description: The scoring criteria is based on Table 37B.

[5] = Solubility of axitinib prodrugs in PBS, 24 h at 22° C., HPLC (Example 6.2); type: physicochemical; settings: for solubility at 24 h / Obtained Conc. (replicate): PBS; for solubility at 24 h: 22 °C, pH 7.2, aqueous buffer, thermodynamic from solid; for solubility at 24 h / Mean Solubility: PBS pH 7.2 to 7.4, 24 hours incubation at 22° C.; for Obtained Conc. (replicate): 24 h at 22° C., after dilution factor, replicates R1, R2
Method: • PBS, pH 7.2 • 24 h at 22° C. with continuous shaking • Solubility of test item was determined by HPLC analysis with calibration curve

[6] = as above; type: physicochemical; settings: pH 7.4, replicates R1, R2
[7] = Stability studies of axitinib co-crystals (Example 4.4); type: physicochemical
Description: The results are also depicted in Table 8.

physchem [8] = settings: PBS, 37 °C, pH 7.4, aqueous buffer, thermodynamic from solid
physchem [9] = settings: aqueous with cosolvent or surfactant or cyclodextrin
[10] = PBS pH 7.4, 37° C.
Solubility of axitinib = type: physicochemical; settings: PBS, 37 °C, pH 7.2, aqueous buffer, thermodynamic from solid; read-out: Solubility in PBS pH 7.2-7.4 (37° C., 5 days)
[11] = NHP study: bioanalysis of axitinib in plasma; type: in vivo, Cynomolgus monkeys; settings: at sacrifice time points, LLOQ 0.100 ng/mL
[12] = cited from earlier work
[13] = listed as Polymorph IV micronized

Molecule: aflibercept: anti-VEGF agent, aflibercept intravitreal injection by Regeneron
- clearance half-life (t1/2) [3]: several days

Molecule: Bevacizumab: Avastin (bevacizumab), comparator in the VEGF challenge study
- Leakage Scores (average) ([4]; Day 7): 0.0
- Leakage Scores (average) ([4]; Day 17): 0.0
- Leakage Scores (average) ([4]; Day 31): 0.0
- Leakage Scores (average) ([4]; Day 45): 1.0
- Leakage Scores (average) ([4]; Day 59): 3.1
- Leakage Scores (average) ([4]; Day 73): 3.7
- leakage score (mean) (retinal vessel leakage; after 60 days, untreated eyes 3.2): 3.1
- leakage score (mean) (retinal vessel leakage; going further beyond 60 days): 3.7
- leakage score (mean) (retinal vessel leakage; up to 31 days): 0.0

Molecule: ranibizumab: anti-VEGF agent, ranibizumab injection by Genentech
- clearance half-life (t1/2) [3]: several days

Molecule: CNC(=O)c1ccccc1Sc1ccc2c(/C=C/c3ccccn3)nn(COC(=O)CCOCCOC)c2c1 [Axitinib N-m(PEG)2-oxymethyl Prodrug, 3-(2-Methoxy-ethoxy)-propionic acid 6-(2-methylcarbamoyl-phenylsulfanyl)-3-((E)-2-pyridin-2-yl-vinyl)-indazol-1-ylmethylester]
- solubility at 24 h [5]: 1.1 µg/mL (≈ 2.01 µM)
- Conc. (replicate) [6]: 1112 ng/mL and 1086 ng/mL

Molecule: CNC(=O)c1ccccc1Sc1ccc2c(/C=C/c3ccccn3)nn(COC(=O)CCC(=O)O)c2c1 [Axitinib N-Succinoyloxymethyl Prodrug]
- Mean Solubility [5]: 217.44 µg/mL
- solubility at 24 h [5]: 217 µg/mL (≈ 421 µM)
- Obtained Conc. (replicate) [5]: 222.06 µg/mL and 212.82 µg/mL

Molecule: Citric Acid
- HPLC Purity after stability studies 25° C./60% RH [7]: 90.78
- HPLC Purity after stability studies 40° C./75% RH [7]: 93.23
- HPLC Purity after stability studies 80° C. [7]: 86.88
- Stability-3 days slurry in H2O (25° C.) and 4 days drying at 32° C./0% RH, HPLC [7]: 96.24

Molecule: CNC(=O)c1ccccc1Sc1ccc2c(/C=C/c3ccccn3)nn(COC(=O)CCOCCOCCOC)c2c1 [Axitinib N-m(PEG)3-oxymethyl Prodrug, 3-[2-(2-Methoxy-ethoxy)-ethoxy]-propionic acid 6-(2-methylcarbamoyl-phenylsulfanyl)-3-((E)-2-pyridin-2-yl-vinyl)-indazol-1-ylmethyl ester]
- solubility at 24 h [5]: 6.16 µg/mL (≈ 10.4 µM)
- Conc. (replicate) [6]: 6179 ng/mL and 6146 ng/mL

Molecule: CNC(=O)c1ccccc1Sc1ccc2c(/C=C/c3ccccn3)nn(COC(=O)CCOC)c2c1 [Axitinib N-m(PEG)1-oxymethyl Prodrug, 3-Methoxy-propionic acid 6-(2-methylcarbamoyl-phenylsulfanyl)-3-((E)-2-pyridin-2-yl-vinyl)-indazol-1-ylmethyl ester]
- Mean Solubility [5]: Not soluble
- Conc. (replicate) [6]: BLOQ (“BLOQ” means “below limit of quantification”. i.e., <0.781 μg/mL)

Molecule: O=C(O)[C@H](O)[C@@H](O)C(=O)O [(+)-L-Tartaric acid]
- HPLC Purity after stability studies 25° C./60% RH [7]: 96.66
- HPLC Purity after stability studies 40° C./75% RH [7]: 96.24
- HPLC Purity after stability studies 80° C. [7]: 93.24
- Stability-3 days slurry in H2O (25° C.) and 4 days drying at 32° C./0% RH, HPLC [7]: 97.50

Molecule: O=C(O)CCCC(=O)O [Glutaric acid]
- HPLC Purity after stability studies 25° C./60% RH [7]: 90.81
- HPLC Purity after stability studies 40° C./75% RH [7]: 99.31
- HPLC Purity after stability studies 80° C. [7]: 99.44
- Stability-3 days slurry in H2O (25° C.) and 4 days drying at 32° C./0% RH, HPLC [7]: 99.80
- Thermodynamic solubility in PBS, pH 7.4 at 37° C., 2 hours ([10]; 2 hours): LOD
- Thermodynamic solubility in PBS, pH 7.4 at 37° C., 4 hours ([10]; 4 hours): LOD
- Thermodynamic solubility in PBS, pH 7.4 at 37° C., 24 hours ([10]; 24 hours): LOD

Second part, led by results:

- chemical and physical stability in an implant [1]: chemically and physically stable
Molecule: CNC(=O)c1ccccc1Sc1ccc2c(/C=C/c3ccccn3)n[nH]c2c1 [Polymorph IV, axitinib]

- Equilibrium solubility in PBS, Average (Days 5-8) [2]: about 0.435 μg/mL
- Equilibrium solubility in PBS, Average (Days 5-8) [2, 13]: 0.435 µg/mL
- Solubility in PBS, Day 1 [2, 13]: 0.678 µg/mL (≈ 1.75 µM)
- Solubility in PBS, Day2 [2, 13]: 0.479 µg/mL (≈ 1.24 µM)
- Solubility in PBS, Day 5 [2, 13]: 0.413 µg/mL (≈ 1.07 µM)
- Solubility in PBS, Day 6 [2, 13]: 0.443 µg/mL (≈ 1.15 µM)
- Solubility in PBS, Day 8 [2, 13]: 0.449 µg/mL (≈ 1.16 µM)
Molecule: CNC(=O)c1ccccc1Sc1ccc2c(/C=C/c3ccccn3)n[nH]c2c1 [axitinib polymorph IV]

- Solubility in PBS, Day 1 [2]: 0.246 µg/mL (≈ 0.637 µM)
- Solubility in PBS, Day2 [2]: 0.277 µg/mL (≈ 0.717 µM)
- Solubility in PBS, Day 5 [2]: 0.256 µg/mL (≈ 0.662 µM)
- Solubility in PBS, Day 6 [2]: 0.253 µg/mL (≈ 0.655 µM)
- Solubility in PBS, Day 8 [2]: 0.247 µg/mL (≈ 0.639 µM)
Molecule: CNC(=O)c1ccccc1Sc1ccc2c(/C=C/c3ccccn3)n[nH]c2c1 [SAB-I super-micronized]

- solubility at 24 h [5]: 99.4 µg/mL (≈ 157 µM)
- Obtained Conc. (replicate) [5]: 100.16 µg/mL and 98.58 µg/mL
Molecule: CNC(=O)c1ccccc1Sc1ccc2c(/C=C/c3ccccn3)nn(COC(=O)CCOCCOCCOCCOC)c2c1 [Axitinib N-m(PEG)4-oxymethyl Prodrug]

- HPLC Purity after stability studies 25° C./60% RH [7]: 99.60
- HPLC Purity after stability studies 40° C./75% RH [7]: 99.64
- HPLC Purity after stability studies 80° C. [7]: 99.47
- Stability-3 days slurry in H2O (25° C.) and 4 days drying at 32° C./0% RH, HPLC [7]: 99.76
Molecule: Fumaric Acid

- solubility thermodynamic at 5 days (physchem [8]): ~0.223 µg/mL (≈ 0.577 µM)
- solubility (physchem [9]; solubility in 25%/75% (v/v) ethanol/water): 13.4 µg/mL (≈ 34.7 µM)
- solubility in PBS ([2]; PBS pH 7.2 to 7.4, 37° C., after five days of incubation): less than 0.3 μg/mL
Molecule: CNC(=O)c1ccccc1Sc1ccc2c(/C=C/c3ccccn3)n[nH]c2c1 [axitinib polymorph SAB-I]

- Solubility in PBS, Day 1 [2]: 0.236 µg/mL (≈ 0.611 µM)
- Solubility in PBS, Day2 [2]: 0.265 µg/mL (≈ 0.686 µM)
- Solubility in PBS, Day 5 [2]: 0.216 µg/mL (≈ 0.559 µM)
- Solubility in PBS, Day 6 [2]: 0.226 µg/mL (≈ 0.585 µM)
- Solubility in PBS, Day 8 [2]: 0.237 µg/mL (≈ 0.613 µM)
Molecule: CNC(=O)c1ccccc1Sc1ccc2c(/C=C/c3ccccn3)n[nH]c2c1 [SAB-I micronized]

- Solubility in PBS, Day 1 [2]: 0.153 µg/mL (≈ 0.396 µM)
- Solubility in PBS, Day2 [2]: 0.228 µg/mL (≈ 0.59 µM)
- Solubility in PBS, Day 5 [2]: 0.190 µg/mL (≈ 0.492 µM)
- Solubility in PBS, Day 6 [2]: 0.194 µg/mL (≈ 0.502 µM)
- Solubility in PBS, Day 8 [2]: 0.188 µg/mL (≈ 0.486 µM)
Molecule: CNC(=O)c1ccccc1Sc1ccc2c(/C=C/c3ccccn3)n[nH]c2c1 [SAB-I non-micronized]

- solubility at 5 days (Solubility of axitinib): 0.2 µg/mL (≈ 0.517 µM)
Molecule: CNC(=O)c1ccccc1Sc1ccc2c(/C=C/c3ccccn3)n[nH]c2c1 [SAB-I, axitinib]

- solubility (physchem [9]; mean solubility value in 25%/75% (v/v) ethanol/water): 18.3 µg/mL (≈ 47.4 µM)
Molecule: CNC(=O)c1ccccc1Sc1ccc2c(/C=C/c3ccccn3)n[nH]c2c1 [axitinib, N-methyl-2-[3-((E)-2-pyridin-2-yl-vinyl)-1H-indazol-6-ylsulfanyl]-benzamide]
- Axitinib concentrations in plasma [11]: No measurable amount of axitinib was detected
- vitreous half-life [12]: 2 h
- clearance half-life (t1/2) [3]: a few hours
